Experimental data: paper PMC12169614, “Exploring Long Arm Amide-Linked Side Chains in the Design of Antifungal Azole Inhibitors of Sterol 14α-Demethylase (CYP51)” (Journal of Medicinal Chemistry, 2025)

What was measured:
[1] = tested on: Y2411 azole sensitive control strain; experiment: Agarose (disk) diffusion assay, strain Y2411; assay type: cell-based, S. cerevisiae; conditions: 10 nmol/disk, 30 °C, 48 h
Source text: (§1) Final compounds were screened as racemic mixtures using agarose diffusion assays to visualize their inhibitory activity against a panel of recombinant S. cerevisiae strains i.e., S. cerevisiae strains expressing control levels of wild-type CYP51 (ScCYP51), overexpressed wild-type ScCYP51, overexpressed azole-resistant ScCYP51 Y140F/H mutations and overexpressed C. albicans efflux pumps MDR1a or CDR1B (Figure and Table S1).
(§2) The susceptibilities of S. cerevisiae and Candida species strains to azole compounds were observed as zones of growth inhibition in agarose diffusion assays. The disk diffusion assays were carried out as described by Keniya et al. Complete supplement mixture (CSM) agarose (0.6% agarose [wt/vol]; 20 mL of synthetic defined medium (SD); pH 6.8–7) was solidified in a rectangular Petri dish which was overlaid with CSM agarose (0.6% [wt/vol]; 5 mL; pH 6.8–7) seeded with yeast cells at an optical density (OD600) of 0.008 (118,000 cells per 1 mL of overlay). Azole compounds (10 nmol/disk) were applied to sterile BBL paper disks (Becton Dickinson Co., Sparks, MD) and placed on solidified overlays. Cell growth was assessed after incubation at 30 °C for 48 h.

[2] = tested on: Y2300 ScCYP51 overexpressed; experiment: Agarose (disk) diffusion assay, strain Y2300; assay type: cell-based, S. cerevisiae; conditions: 10 nmol/disk, 30 °C, 48 h
Source text: as §1, §2

[3] = tested on: Y525 MFS efflux pump CaMDR1a overexpressed; experiment: Agarose (disk) diffusion assay, strain Y525; assay type: cell-based, S. cerevisiae; conditions: 10 nmol/disk, 30 °C, 48 h
Source text: as §1, §2

[4] = tested on: Y2513 ScCYP51 Y140H mutant; experiment: Agarose (disk) diffusion assay, strain Y2513; assay type: cell-based, S. cerevisiae; conditions: 10 nmol/disk, 30 °C, 48 h
Source text: as §1, §2

[5] = tested on: Y2301 ScCYP51 Y140F mutant; experiment: Agarose (disk) diffusion assay, strain Y2301; assay type: cell-based, S. cerevisiae; conditions: 10 nmol/disk, 30 °C, 48 h
Source text: as §1, §2

[6] = tested on: Y570 ABC efflux pump CaCDR1B overexpressed; experiment: Agarose (disk) diffusion assay, strain Y570; assay type: cell-based, S. cerevisiae; conditions: 10 nmol/disk, 30 °C, 48 h
Source text: as §1, §2

CaCYP51 Y132F = CaCYP51 Y132F (Candida albicans, UniProt P10613, Y132F); conditions: footnote b; ref number not given; cited from earlier work
Sequence of CaCYP51 Y132F (P10613 whole entry Y132F): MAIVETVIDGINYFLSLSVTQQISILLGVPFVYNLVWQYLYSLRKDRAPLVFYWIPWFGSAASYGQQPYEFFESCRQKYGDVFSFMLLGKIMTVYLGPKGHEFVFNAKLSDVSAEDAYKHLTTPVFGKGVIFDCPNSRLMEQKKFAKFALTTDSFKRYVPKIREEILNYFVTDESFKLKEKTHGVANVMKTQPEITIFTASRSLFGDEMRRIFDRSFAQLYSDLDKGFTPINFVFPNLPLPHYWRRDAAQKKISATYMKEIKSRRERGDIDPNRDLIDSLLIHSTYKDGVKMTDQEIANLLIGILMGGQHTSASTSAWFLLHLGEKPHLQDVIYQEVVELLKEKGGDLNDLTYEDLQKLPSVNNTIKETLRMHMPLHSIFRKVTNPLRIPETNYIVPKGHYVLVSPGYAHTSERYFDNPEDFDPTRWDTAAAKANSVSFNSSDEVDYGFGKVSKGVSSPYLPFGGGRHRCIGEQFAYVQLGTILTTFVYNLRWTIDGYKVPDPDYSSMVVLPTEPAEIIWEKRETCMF

CaCYP51 Y132H + K143R = CaCYP51 Y132H + K143R (Candida albicans, UniProt P10613, K143R/Y132H); experiment: Reconstituted CYP51 activity assay, Y132H + K143R; assay type: biochemical, C. albicans; conditions: 1 μM CaCyp51, 50 μM lanosterol; duplicate, mean ± SD
Sequence of CaCYP51 Y132H + K143R (P10613 whole entry Y132H/K143R): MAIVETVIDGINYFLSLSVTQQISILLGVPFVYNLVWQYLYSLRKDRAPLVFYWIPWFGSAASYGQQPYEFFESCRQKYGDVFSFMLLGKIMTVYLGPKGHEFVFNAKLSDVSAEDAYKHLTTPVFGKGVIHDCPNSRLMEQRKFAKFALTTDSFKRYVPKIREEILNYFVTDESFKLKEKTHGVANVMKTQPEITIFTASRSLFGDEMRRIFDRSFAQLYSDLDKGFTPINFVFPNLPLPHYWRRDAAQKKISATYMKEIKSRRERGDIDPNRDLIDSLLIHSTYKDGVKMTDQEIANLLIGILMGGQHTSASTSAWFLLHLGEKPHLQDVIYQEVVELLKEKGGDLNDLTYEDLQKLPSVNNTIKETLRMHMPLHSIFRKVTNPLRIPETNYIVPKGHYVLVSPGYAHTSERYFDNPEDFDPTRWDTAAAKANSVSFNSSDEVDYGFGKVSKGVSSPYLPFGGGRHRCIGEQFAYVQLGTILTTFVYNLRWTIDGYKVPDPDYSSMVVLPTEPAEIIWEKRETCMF
Description: (§3) The reconstituted CYP51 assay previously described contained 1 μM CaCyp51, 2 μM Homo sapiens cytochrome P450 reductase and 50 μM lanosterol in a final volume of 500 μL. After the addition of azole in DMSO (2.5 μL), reactions were incubated at 37 °C for 10 min prior to initiation by the addition of 100 μL 20 mM β-NADPH-Na4. Sterol substrates and products were extracted with ethyl acetate, derivatized with N,O-bis(trimethylsilyl)-trifluoroacetamide (BSTFA)–trimethylchlorosilane (TMCS) (99:1) in the presence of anhydrous pyridine, and analyzed by GC/MS as described previously. IC50 determinations were performed in duplicate. Nonlinear regression of inhibitor concentration vs normalized response was calculated by GraphPad Prism 10.4.0 for Windows (GraphPad Software, Boston, Massachusetts, USA, www.graphpad.com).

wild-type CaCYP51 = wild-type CaCYP51 (Candida albicans, UniProt P10613); experiment: Reconstituted CYP51 activity assay, wild type; assay type: biochemical, C. albicans; conditions: 1 μM CaCyp51, 50 μM lanosterol; duplicate, mean ± SD
Sequence of wild-type CaCYP51 (P10613 whole entry): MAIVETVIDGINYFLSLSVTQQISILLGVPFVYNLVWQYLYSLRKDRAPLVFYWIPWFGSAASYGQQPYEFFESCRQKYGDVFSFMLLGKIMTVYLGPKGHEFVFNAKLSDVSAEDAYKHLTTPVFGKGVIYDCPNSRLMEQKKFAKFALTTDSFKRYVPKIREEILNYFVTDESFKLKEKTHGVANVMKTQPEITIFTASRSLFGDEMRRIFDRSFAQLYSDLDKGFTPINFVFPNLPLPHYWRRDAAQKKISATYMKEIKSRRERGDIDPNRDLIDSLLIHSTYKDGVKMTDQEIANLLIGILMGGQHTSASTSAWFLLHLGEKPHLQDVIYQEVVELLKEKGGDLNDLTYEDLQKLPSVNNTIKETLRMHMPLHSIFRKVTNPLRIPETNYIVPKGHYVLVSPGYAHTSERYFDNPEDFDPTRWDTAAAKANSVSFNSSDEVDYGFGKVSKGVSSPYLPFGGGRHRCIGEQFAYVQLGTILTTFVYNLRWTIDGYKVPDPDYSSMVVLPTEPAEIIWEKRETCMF
Description: as §3

CYP3A4 = CYP3A4 (Homo sapiens, UniProt P08684); design: method as in numbers not given; conditions: literature values for azole antifungals; ref numbers not given; cited from earlier work
Sequence of CYP3A4 (P08684 whole entry): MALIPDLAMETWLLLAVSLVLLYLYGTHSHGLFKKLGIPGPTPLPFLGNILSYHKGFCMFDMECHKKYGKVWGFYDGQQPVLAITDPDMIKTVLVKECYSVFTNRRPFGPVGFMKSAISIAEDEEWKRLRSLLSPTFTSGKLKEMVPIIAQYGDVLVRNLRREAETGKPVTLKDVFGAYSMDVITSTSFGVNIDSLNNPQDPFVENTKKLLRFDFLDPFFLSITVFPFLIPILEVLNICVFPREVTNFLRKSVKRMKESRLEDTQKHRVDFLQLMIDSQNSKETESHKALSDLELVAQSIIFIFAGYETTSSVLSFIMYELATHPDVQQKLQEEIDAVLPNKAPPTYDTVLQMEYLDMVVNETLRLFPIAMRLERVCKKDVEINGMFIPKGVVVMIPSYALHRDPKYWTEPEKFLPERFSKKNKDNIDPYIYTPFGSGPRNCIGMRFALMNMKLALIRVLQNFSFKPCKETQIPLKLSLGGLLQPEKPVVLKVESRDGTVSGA

[7] = tested on: Y2747 OE AfCYP51B AfCPR AfERG6; experiment: MIC80 determination, strain Y2747; assay type: cell-based, S. cerevisiae
Description: (§4) Cells were seeded at an OD600 nm of 0.005 (1.5 × 10^4 CFU), and the plates were incubated at 30 °C with shaking at 200 rpm for 48 h for S. cerevisiae strains and 24 h for C. albicans . Cell growth was assessed by measuring the OD600 nm using a Synergy 2 multimode plate reader (BioTek Instruments, VT, USA). Each MIC80 was determined using triplicate measurements for pools of 4 clones of each strain in three separate experiments.

Y2411 Endog. ScCYP51 = experiment: MIC80 determination, strain Y2411; assay type: cell-based, S. cerevisiae; conditions: Saccharomyces cerevisiae
Description: as §4

Y2459 OE CaCYP51 CaCpr = experiment: MIC80 determination, strain Y2459; assay type: cell-based, S. cerevisiae
Description: as §4

Y2651 OE CYP51 F5 RaCPR = experiment: MIC80 determination, strain Y2651; assay type: cell-based, S. cerevisiae; conditions: Saccharomyces cerevisiae
Description: as §4

Y611 FHB3 = experiment: MIC80 determination, C. albicans clinical isolate Y611 FHB3; assay type: cell-based; conditions: Candida albicans, 24 h, pH 7
Description: as §4

[8] = tested on: Y2746 OE AfCYP51A AfCPR AfERG6; experiment: MIC80 determination, strain Y2746; assay type: cell-based, S. cerevisiae; conditions: Saccharomyces cerevisiae
Description: as §4

Y433 OE CgCDR1 = experiment: MIC80 determination, strain Y433; assay type: cell-based, S. cerevisiae; conditions: Saccharomyces cerevisiae
Description: as §4

Y1 = experiment: MIC80 determination, C. albicans clinical isolate Y1; assay type: cell-based; conditions: Candida albicans, pH 7, 24 h
Description: as §4

Y2374 OE CgCYP51 = experiment: MIC80 determination, strain Y2374; assay type: cell-based, S. cerevisiae; conditions: Saccharomyces cerevisiae
Description: as §4

Y2513 OE ScCYP51 Y140H = experiment: MIC80 determination, strain Y2513; assay type: cell-based, S. cerevisiae; conditions: Saccharomyces cerevisiae
Description: as §4

Y610 FHB1 = experiment: MIC80 determination, C. albicans clinical isolate Y610 FHB1; assay type: cell-based; conditions: Candida albicans; C. albicans clinical isolate Y610 FHB1 (weakly expresses CaCDR1); pH 7, 24 h
Description: as §4

2711 CnCYP51 OE CnCPR = experiment: MIC80 determination, strain 2711; assay type: cell-based, S. cerevisiae
Description: as §4

Y2721 OE CpCYP51 = experiment: MIC80 determination, strain Y2721; assay type: cell-based, S. cerevisiae
Description: as §4

Y525 OE CaMDR1a = experiment: MIC80 determination, strain Y525; assay type: cell-based, S. cerevisiae
Description: as §4

Y2301 OE ScCYP51 Y140F = experiment: MIC80 determination, strain Y2301; assay type: cell-based, S. cerevisiae; conditions: Saccharomyces cerevisiae
Description: as §4

Y2649 OE CYP51 F1 RaCPR = experiment: MIC80 determination, strain Y2649; assay type: cell-based, S. cerevisiae
Description: as §4

Y71 SC5314 = experiment: MIC80 determination, C. albicans clinical isolate Y71 SC5314; assay type: cell-based; conditions: Candida albicans
Description: as §4

Y2300 OE ScCYP51 = experiment: MIC80 determination, strain Y2300; assay type: cell-based, S. cerevisiae; conditions: Saccharomyces cerevisiae
Description: as §4

Y2716 OE CpCYP51 Y132F = experiment: MIC80 determination, strain Y2716; assay type: cell-based, S. cerevisiae
Description: as §4

Y570 OE CaCDR1B = experiment: MIC80 determination, strain Y570; assay type: cell-based, S. cerevisiae
Description: as §4

[9] = Saccharomyces cerevisiae, 48 h, pH 6.8

## O=C(Nc1ccc(CNC(=O)C(Cn2cncn2)c2ccc(F)cc2F)cc1)c1ccc(Cl)cc1 (centres unmarked) [Compound 44, 4-Chloro-N-(4-((2-(2,4-difluorophenyl)-3-(1H-1,2,4-triazol-1-yl)propanamido)methyl)phenyl)benzamide]
[1]
  zone of growth inhibition (inhibitory activity in words): strongly inhibited
[2]
  zone of growth inhibition (inhibitory activity in words): strongly inhibited
[3]
  zone of growth inhibition (inhibitory activity in words): retained some inhibitory activity
[4]
  zone of growth inhibition (inhibitory activity in words): reduced activity
[5]
  zone of growth inhibition (inhibitory activity in words): reduced activity
[6]
  zone of growth inhibition (inhibitory activity in words): not the CaCDR1B expressing strain

## OC(Cn1cncn1)(Cn1cncn1)c1ccc(F)cc1F [FLC, fluconazole, reference compound]
CaCYP51 Y132F
  IC50: 0.606 ± 0.066 µM
CaCYP51 Y132H + K143R
  IC50: 25.7 ± 3.55 µM
wild-type CaCYP51
  IC50: 0.335 ± 0.017 µM

## O[C@@](Cn1cnnn1)(c1ccc(F)cc1F)C(F)(F)c1ccc(-c2ccc(OCC(F)(F)F)cc2)cn1 [VT-1161, Oteseconazole]
CYP3A4
  IC50: 140 µM

## O=C(NCC(O)(Cn1cncn1)c1ccc(F)cc1F)c1ccc2cc(F)ccc2c1 (centres unmarked) [Compound 14, N-(2-(2,4-Difluorophenyl)-2-hydroxy-3-(1H-1,2,4-triazol-1-yl)propyl)-6-fluoro-2-naphthamide]
[7]; Aspergillus fumigatus, read-out: MIC (nM) A. fumigatus model Y2747
  MIC: 300 nM
[7]; Saccharomyces cerevisiae
  MIC80: 0.3 µM
Y2411 Endog. ScCYP51; strain Y2411 Endog. ScCYP51, SD pH 6.8, 30 °C, 48 h
  MIC80: 0.015 ± 0.003 µM
Y2411 Endog. ScCYP51; supplement csv, read-out: MIC (nM) S. cerevisiae Y2411
  MIC: 15 ± 3 nM
[3]
  zone of growth inhibition (inhibitory activity in words): reduced effect
Y2459 OE CaCYP51 CaCpr; [9]
  MIC80: 0.054 ± 0.021 µM
Y2459 OE CaCYP51 CaCpr; read-out: MIC (nM) C. albicans model Y2459
  MIC: 54 ± 21 nM
Y2651 OE CYP51 F5 RaCPR
  MIC80: 3.5 µM
Y611 FHB3
  MIC80: 2.4 µM
[4]
  zone of growth inhibition (inhibitory activity in words): showed activity
[8]
  MIC80: > 15 µM
[5]
  zone of growth inhibition (inhibitory activity in words): showed activity
Y433 OE CgCDR1
  MIC80: 9.2 ± 0.707 µM
Y1
  MIC80: 0.01 µM
Y2374 OE CgCYP51
  MIC80: 0.047 ± 0.006 µM
Y2374 OE CgCYP51; read-out: MIC (nM) C. glabrate model Y2374
  MIC: 47 ± 6 nM
Y2513 OE ScCYP51 Y140H; 48 h, pH 6.8
  MIC80: 0.632 ± 0.123 µM
Y2513 OE ScCYP51 Y140H; read-out: MIC (nM) S. cerevisiae Y2513
  MIC: 632 ± 123 nM
Y610 FHB1
  MIC80: 0.075 µM
2711 CnCYP51 OE CnCPR; Saccharomyces cerevisiae
  MIC80: 0.005 µM
2711 CnCYP51 OE CnCPR; read-out: MIC (nM) C. neoformans model Y2711
  MIC: 5 nM
Y2721 OE CpCYP51; Saccharomyces cerevisiae
  MIC80: 0.024 µM
Y2721 OE CpCYP51; read-out: MIC (nM) C. parapsilosis model Y2721
  MIC: 24 nM
Y525 OE CaMDR1a; [9]
  MIC80: > 1 µM
Y525 OE CaMDR1a; read-out: MIC (nM) C. albicans model Y525
  MIC: > 1000 nM
Y2301 OE ScCYP51 Y140F; 48 h, pH 6.8
  MIC80: 0.326 ± 0.048 µM
Y2301 OE ScCYP51 Y140F; read-out: MIC (nM) S. cerevisiae Y2301
  MIC: 326 ± 48 nM
Y2649 OE CYP51 F1 RaCPR; Rhizopus arrhizus, read-out: MIC (nM) R. arrhizus model Y2649
  MIC: 83 nM
Y2649 OE CYP51 F1 RaCPR; Saccharomyces cerevisiae
  MIC80: 0.083 µM
Y71 SC5314; SC5314, supplement csv
  MIC: 18 nM
Y71 SC5314; C. albicans clinical isolate Y71 SC5314, pH 7, 24 h
  MIC80: 0.018 µM
[6]
  zone of growth inhibition (inhibitory activity in words): no effect
Y2300 OE ScCYP51; 48 h, pH 6.8
  MIC80: 0.048 ± 0.004 µM
Y2300 OE ScCYP51; read-out: MIC (nM) S. cerevisiae Y2300
  MIC: 48 ± 4 nM
Y2716 OE CpCYP51 Y132F; MIC80 Y2716 versus Y2721
  increase in resistance owing to the CpCYP51 Y132F mutation: > 19 fold
Y2716 OE CpCYP51 Y132F; Saccharomyces cerevisiae
  MIC80: 1 µM
Y570 OE CaCDR1B; Candida albicans, read-out: MIC (nM) C. albicans model Y570
  MIC: 33500 nM
Y570 OE CaCDR1B; [9]
  MIC80: 33.5 µM

## O=C(Nc1ccc(CNC(=O)C(Cn2cncn2)c2ccc(F)cc2F)cc1)c1cccnc1 (centres unmarked) [Compound 47, N-(4-((2-(2,4-Difluorophenyl)-3-(1H-1,2,4-triazol-1-yl)propanamido)methyl)phenyl)nicotinamide]
[1]
  zone of growth inhibition (inhibitory activity in words): poorly inhibited
[2]
  zone of growth inhibition (inhibitory activity in words): did not inhibit
